Reference: PubChem BioAssay AID2060599 (Molecular Pharmacology Branch, DTP, NCI, 2025)

Test system: 817829-284-R-J1-PDC complex spheroids, viability
Experiment: Anticancer human tumor 817829-284-R-J1-PDC patient-derived colon adenocarcinoma cell line growth inhibition [CLK]
Details: for IC50: curve of first compound; for viability, T/C: stronger effect = lower value
Summary of the method: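 Patient-derived tumor cells grown as complex spheroids with HUVEC endothelial cells and mesenchymal stem cells, treated with drug combinations. Concentrations descend in half-log steps from near clinical Cmax, or from 10 microM if Cmax unknown.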

[1] = second compound 0.0316 µM, first compound 0.0316 µM
[2] = second compound 0.0316 µM, first compound 0.1 µM
[3] = second compound 0.0316 µM, first compound 0.316 µM
[4] = second compound 0.0316 µM, first compound 1 µM
[5] = second compound 0.0316 µM, first compound 3.16 µM
[6] = second compound 0.0316 µM, first compound 10 µM
[7] = second compound 0.1 µM, first compound 0.0316 µM
[8] = second compound 0.1 µM, first compound 0.1 µM
[9] = second compound 0.1 µM, first compound 0.316 µM
[10] = second compound 0.1 µM, first compound 1 µM
[11] = second compound 0.1 µM, first compound 3.16 µM
[12] = second compound 0.1 µM, first compound 10 µM
[13] = second compound 0.316 µM, first compound 0.0316 µM
[14] = second compound 0.316 µM, first compound 0.1 µM
[15] = second compound 0.316 µM, first compound 0.316 µM
[16] = second compound 0.316 µM, first compound 1 µM
[17] = second compound 0.316 µM, first compound 3.16 µM
[18] = second compound 0.316 µM, first compound 10 µM
[19] = second compound 1 µM, first compound 0.0316 µM
[20] = second compound 1 µM, first compound 0.1 µM
[21] = second compound 1 µM, first compound 0.316 µM
[22] = second compound 1 µM, first compound 1 µM
[23] = second compound 1 µM, first compound 3.16 µM
[24] = second compound 1 µM, first compound 10 µM
[25] = second compound 3.16 µM, first compound 0.0316 µM
[26] = second compound 3.16 µM, first compound 0.1 µM
[27] = second compound 3.16 µM, first compound 0.316 µM
[28] = second compound 3.16 µM, first compound 1 µM
[29] = second compound 3.16 µM, first compound 3.16 µM
[30] = second compound 3.16 µM, first compound 10 µM
[31] = second compound 10 µM, first compound 0.0316 µM
[32] = second compound 10 µM, first compound 0.1 µM
[33] = second compound 10 µM, first compound 0.316 µM
[34] = second compound 10 µM, first compound 1 µM
[35] = second compound 10 µM, first compound 3.16 µM
[36] = second compound 10 µM, first compound 10 µM
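Further: spheroids exposed to the agents for seven days before readout.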

COc1ccc([C@@H](O)c2cc(-c3ncnc4cc(N5CCOCC5)ccc34)c(F)cc2Cl)nn1 + CN1CCN(c2cc(C(=O)Nc3cc4cc(-c5cnn(C)c5)ccc4cn3)ccn2)CC1
IC50 (second compound 0.0316 µM): 429 nM | IC50 (second compound 0.1 µM): < 31.6 nM | IC50 (second compound 0.316 µM): < 31.6 nM | IC50 (second compound 1 µM): < 31.6 nM | IC50 (second compound 3.16 µM): < 31.6 nM | IC50 (second compound 10 µM): < 31.6 nM | viability, T/C [1]: 79.8% | viability, T/C [2]: 69% | viability, T/C [3]: 59.6% | viability, T/C [4]: 29.3% | viability, T/C [5]: 19.4% | viability, T/C [6]: 10.3% | viability, T/C [7]: 15.4% | viability, T/C [8]: 17.1% | viability, T/C [9]: 14.9% | viability, T/C [10]: 13% | viability, T/C [11]: 11.8% | viability, T/C [12]: 6.42% | viability, T/C [13]: 1.6% | viability, T/C [14]: 2.02% | viability, T/C [15]: 2.05% | viability, T/C [16]: 1.33% | viability, T/C [17]: 1% | viability, T/C [18]: 0.54% | viability, T/C [19]: 0.08% | viability, T/C [20]: 0.13% | viability, T/C [21]: 0.1% | viability, T/C [22]: 0.06% | viability, T/C [23]: 0.1% | viability, T/C [24]: 0.07% | viability, T/C [25]: 0.14% | viability, T/C [26]: 0.14% | viability, T/C [27]: 0.19% | viability, T/C [28]: 0.11% | viability, T/C [29]: 0.13% | viability, T/C [30]: 0.16% | viability, T/C [31]: 0.09% | viability, T/C [32]: 0.06% | viability, T/C [33]: 0.13% | viability, T/C [34]: 0.08% | viability, T/C [35]: 0.15% | viability, T/C [36]: 0.12%

COc1cccc2c1C(=O)c1c(O)c3c(c(O)c1C2=O)CC(O)(C(=O)CO)CC3OC1CC(N)C(O)C(C)O1 (stereo unspecified) + CN1CCN(c2cc(C(=O)Nc3cc4cc(-c5cnn(C)c5)ccc4cn3)ccn2)CC1
IC50 (second compound 0.0316 µM): < 31.6 nM | IC50 (second compound 0.1 µM): < 31.6 nM | IC50 (second compound 0.316 µM): < 31.6 nM | IC50 (second compound 1 µM): < 31.6 nM | IC50 (second compound 3.16 µM): < 31.6 nM | IC50 (second compound 10 µM): < 31.6 nM | viability, T/C [1]: 19.4% | viability, T/C [2]: 15.6% | viability, T/C [3]: 3.99% | viability, T/C [4]: 0.16% | viability, T/C [5]: 0.37% | viability, T/C [6]: 1.02% | viability, T/C [7]: 18.2% | viability, T/C [8]: 13.4% | viability, T/C [9]: 2.32% | viability, T/C [10]: 0.22% | viability, T/C [11]: 0.51% | viability, T/C [12]: 0.96% | viability, T/C [13]: 1.68% | viability, T/C [14]: 0.69% | viability, T/C [15]: 0.24% | viability, T/C [16]: 0.33% | viability, T/C [17]: 0.63% | viability, T/C [18]: 0.97% | viability, T/C [19]: 0.12% | viability, T/C [20]: 0.29% | viability, T/C [21]: 0.26% | viability, T/C [22]: 0.59% | viability, T/C [23]: 0.53% | viability, T/C [24]: 0.72% | viability, T/C [25]: 0.14% | viability, T/C [26]: 0.16% | viability, T/C [27]: 0.24% | viability, T/C [28]: 0.38% | viability, T/C [29]: 0.38% | viability, T/C [30]: 0.06% | viability, T/C [31]: 0.04% | viability, T/C [32]: 0.07% | viability, T/C [33]: 0.11% | viability, T/C [34]: 0.06% | viability, T/C [35]: 0.1% | viability, T/C [36]: 0.08%

O=c1[nH]cc(F)c(=O)[nH]1 + CN1CCN(c2cc(C(=O)Nc3cc4cc(-c5cnn(C)c5)ccc4cn3)ccn2)CC1
IC50 (second compound 0.0316 µM): 851 nM | IC50 (second compound 0.1 µM): < 31.6 nM | IC50 (second compound 0.316 µM): < 31.6 nM | IC50 (second compound 1 µM): < 31.6 nM | IC50 (second compound 3.16 µM): < 31.6 nM | IC50 (second compound 10 µM): < 31.6 nM | viability, T/C [1]: 72.7% | viability, T/C [2]: 66.3% | viability, T/C [3]: 57.1% | viability, T/C [4]: 52.4% | viability, T/C [5]: 33.8% | viability, T/C [6]: 26.3% | viability, T/C [7]: 18.2% | viability, T/C [8]: 17.6% | viability, T/C [9]: 22.3% | viability, T/C [10]: 20.8% | viability, T/C [11]: 18.9% | viability, T/C [12]: 15.9% | viability, T/C [13]: 2.25% | viability, T/C [14]: 2.52% | viability, T/C [15]: 1.94% | viability, T/C [16]: 2.49% | viability, T/C [17]: 2.36% | viability, T/C [18]: 2.06% | viability, T/C [19]: 0.14% | viability, T/C [20]: 0.12% | viability, T/C [21]: 0.18% | viability, T/C [22]: 0.07% | viability, T/C [23]: 0.07% | viability, T/C [24]: 0.05% | viability, T/C [25]: 0.14% | viability, T/C [26]: 0.11% | viability, T/C [27]: 0.11% | viability, T/C [28]: 0.1% | viability, T/C [29]: 0.15% | viability, T/C [30]: 0.14% | viability, T/C [31]: 0.07% | viability, T/C [32]: 0.08% | viability, T/C [33]: 0.1% | viability, T/C [34]: 0.11% | viability, T/C [35]: 0.13% | viability, T/C [36]: 0.08%
